Measurements from paper PMC11864979, “First-in-class ultralong-target-residence-time p38α inhibitors as a mitosis-targeted therapy for colorectal cancer” (Nature Cancer, 2025).
Values joined by “and” are separate entries in the source; they are usually repeats but may differ in a detail not shown here. Identical values can stand only once. Like-named read-outs stand apart in the source and are kept apart here.

Experiments:
KAP organoids = assay: cell viability in KAP organoids (CellTiter-Glo); type: cell-based, mouse; settings: for induction of cell death in KAP organoids (in words): viability assay
Protocol: For in vitro treatment studies, organoids were mechanically dissociated and digested using TrypLE supplemented with 100 µg ml^−1 DNaseI and 10.5 µM Y-27632 dihydrochloride (Invitrogen) at 37 °C. A total of 1,000–2,000 single cells were plated per well in white 96-well plates (Greiner) in culture medium containing 10% GFR Matrigel or Cultrex BME. The treatment with doxycycline (5 µg ml^−1), pharmacological inhibitors or corresponding volumes of DMSO was started 24 h after plating. Doxycycline was obtained from Sigma-Aldrich. […] Cell viability was measured by means of CellTiter-Glo 3D or CellTiter-Glo 2.0 reagent (Promega) according to the manufacturers’ instructions and the Infinite M Plex reader (Tecan, i-control version 3.9.1 software). Results were normalized to vehicle (DMSO) or to shNC. For cell-doubling assays, the cell number was quantified at the corresponding time points using Guava EasyCyte flow cytometer (Luminex, CytoSoft v5.2 software).

p38α = p38α (Homo sapiens, UniProt Q16539); assay: p38α inhibition on isolated enzyme (ELISA, ATF2 substrate); type: biochemical; settings: Fig. 2d; replicates
p38α, sequence (Q16539 whole entry): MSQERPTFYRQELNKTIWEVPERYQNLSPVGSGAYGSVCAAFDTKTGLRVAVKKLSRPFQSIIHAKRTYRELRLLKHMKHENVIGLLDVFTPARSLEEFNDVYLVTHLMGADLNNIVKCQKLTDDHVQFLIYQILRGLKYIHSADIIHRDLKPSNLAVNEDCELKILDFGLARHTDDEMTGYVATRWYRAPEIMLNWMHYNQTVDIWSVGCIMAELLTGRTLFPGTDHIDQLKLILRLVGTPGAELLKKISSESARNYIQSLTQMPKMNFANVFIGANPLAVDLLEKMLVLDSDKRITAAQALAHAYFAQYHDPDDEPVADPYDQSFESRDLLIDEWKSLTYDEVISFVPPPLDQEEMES
Protocol: For evaluating p38α inhibition on isolated enzyme, an ELISA assay was performed[57]. […] Compounds were dissolved in DMSO (10 mM) and diluted (0.01–10 µM) in a kinase buffer containing 12 ng per 50 µl p38α protein (provided by J. Schultz, University of Tübingen), 50 mM Tris pH 7.5, 10 mM MgCl2, 10 mM β-glycerophosphate, 100 µg ml^−1 BSA, 1 mM dithiothreitol, 0.1 mM Na3VO4 and 100 µM ATP. Then, 50 µl of each sample was pipetted into the corresponding wells and incubated for 1 h at 37 °C. […] Finally, 50 µl of TMB substrate (BD Bioscience) was added to the wells. After 5 min, the reaction was stopped by adding 25 µl of 1 N HCl and the samples were measured photometrically at 450 nm with an ELISA reader (Molecular Devices, FilterMax F5) using SOFTmax PRO software (version 6.5.1).

[1] = cell viability after 2015, Navitoclax or 2015 + Navitoclax (Fig. 5f); type: cell-based; set-up: concentration or dose not given beside the values; settings: replicates
subcutaneous KAP CRCs = assay: treatment of subcutaneous KAP tumors in wild-type mice; type: in vivo, mouse; settings: 6 d of treatment; single tumors; Fig. 5i
[2] = Mus musculus, 24 h, read-out: Cell viability (%), Fig. 1d, replicates

| SMILES | viability at 10 µM (KAP organoids; [2]) | induction of cell death in KAP organoids (in words) (KAP organoids) | other results |
| --- | --- | --- | --- |
| CC(C)(C)Cn1c(N)nc2ccc(-c3[nH]c(C(C)(C)C)nc3-c3ccc(F)cc3)nc21 [LY2228820, ralimetinib, reference compound] | 77.8% | only a very weak induction of cell death | viability at 5 µM (KAP organoids; Mus musculus, 24 h, read-out: Cell viability (%), Fig. 1d, 5 µM, replicates): 93.3% |
| CNC(=O)c1ccc(C)c(-n2c(C)cc(OCc3ccc(F)cc3F)c(Br)c2=O)c1 [PH797804] | 84.1% | – | viability at 1 µM (KAP organoids; Mus musculus, 24 h, read-out: Cell viability (%), Fig. 1d, 1 µM, replicates): 92.1%; viability at 1 µM (KAP organoids; Mus musculus, read-out: Cell viability (% of DMSO), drug screen in KAP organoids, 1 µM concentration, n = 3, mean): 86.2% |
| CNC(=O)c1ccc(C)c(-n2c(C)cc(OCc3ccc(F)cc3F)c(Br)c2=O)c1 [PH-797804, reference compound] | – | only a very weak induction of cell death | – |
| CC(C)(C)Cn1c(N)nc2ccc(-c3[nH]c(C(C)(C)C)nc3-c3ccc(F)cc3)nc21 [LY222820] | – | – | IC50 (p38α): 7.81 nM and 4.31 nM and 10.9 nM |
| Cc1ccc(-n2nc(C(C)(C)C)cc2NC(=O)Nc2ccc(OCCN3CCOCC3)c3ccccc23)cc1 [BIRB-796, reference compound] | – | failed to inhibit p38α downstream signaling and induce cell death | – |
| CC1(C)CCC(c2ccc(Cl)cc2)=C(CN2CCN(c3ccc(C(=O)NS(=O)(=O)c4ccc(N[C@H](CCN5CCOCC5)CSc5ccccc5)c(S(=O)(=O)C(F)(F)F)c4)cc3)CC2)C1 [navitoclax, reference compound] | – | no therapeutic response | Cell viability [1]: 100.49% and 78.37% and 85.69%; Tumor volume (subcutaneous KAP CRCs): 87.5 mm³ and 126.0 mm³ and 144.0 mm³ and 112.5 mm³ and 100.0 mm³ |
